Entries after “also recorded” stand apart in the source; their conditions may differ.
Tests used:
[1] = tested on: Type IV allergic dermatitis; test: Type IV allergic dermatitis (picryl chloride) auricle swelling; format: in vivo, male ICR mice
Method: Male 6-week-old ICR mice (Clea Japan, Inc.) were divided into two groups of control group and administration group containing 8-9 mice each. A 0.5% methylcellulose solution (10 ml/kg) was forcefully administered orally to the control group and diethyl acetoacetylcromoglycate (100 mg/kg) was forcefully administered orally to the administration group twice a day for 14 days for each group. After the initial administration at day 8 of the administration, pentobarbital sodium (55 mg/kg) was intraperitoneally administered to each mouse and the abdomen was shaved. 5% Picryl chloride (50 μl) dissolved in acetone-olive oil (mixing ratio, 1:4) was applied to the shaved portion (diameter about 2 cm). After the initial administration at day 5 after the application (day 12 of administration), all mice were anesthetized with ether and the thickness of both auricles was measured with a dial thickness gauge (Mitutoyo Co.). […] After 48 hours from this antigen challenge, the thickness of both auricles was measured with a dial thickness gauge under ether anesthesia.
The difference between the thickness of the auricle applied with the solvent and the thickness of the auricle applied with the antigen was measured for each mouse.

[2] = tested on: collagen-induced arthritis in mice; test: Collagen-induced arthritis in mice: arthritis score; format: in vivo, male DBA/1J mice; conditions: for Arthritis score: mean ± standard error (n = 8-10)
Text: (§1) According to the method of Courtenay et al. (Courtenay, J. S. et al.: Immunization against heterologous type II collagen induces arthritis in mice. Nature, 283:666, 1980), male DBA/1J mice (CHARLES RIVER JAPAN INC.) were sensitized with bovine type II collagen to induce collagen-induced arthritis (rheumatoid arthritis). After the onset of arthritis, diethyl acetoacetylcromoglycate was orally administered and its inhibitory effect was examined. The method is detailed in the following.
Male DBA/1J mice (8-week-old) were pre-bred for one week and divided into the following 3 groups based on body weight (8-10 per group).
Bovine type II collagen (2 mg) was dissolved in 0.01M acetic acid (1 ml) and suspended in an equivalent amount of Freund's complete adjuvant, and 0.1 ml thereof was intradermally injected to the control group and treated group at 9 weeks of age at the base of the tail, followed by the second injection three weeks later at 12 weeks of age.
Starting from day 31 after the initial injection of collagen till the end of the treatment, the mice of each group were scored (arthritis score) twice a week for the levels of redness, swelling and stiffness of four limbs by a blind test method. The scores were taken according to a method similar to the method of Bjork et al. (Bjork, J. and Kleinau, S.: Paradoxical effects of LS-2616 (Linomide) treatment in the type II collagen arthritis model in mice, Agents and Actions, 27:319-321, 1989.), wherein normal was rated 0 point, inflammation on one digit was 1 point, inflammation on two or more digits and normal metacarpal region and metatarsal region of the limbs, or inflammation on one digit and metacarpal region and metatarsal region of the limbs was 2 points, and inflammation on digits and metacarpal region and metatarsal region of the limbs was 3 points, each mouse scoring 0 to 12 points in total.
The treatment was continued for 6 weeks from day 41 from the initial injection of collagen. […]

[3] = tested on: anti-bovine type II collagen antibody; test: Anti-bovine type II collagen antibody titer in blood (ELISA) in collagen-induced arthritis mice; format: in vivo, male DBA/1J mice; conditions: 100 mg/kg/day orally
Text: as §1
(§2) Male DBA/1J mice (8-week-old) were pre-bred for one week and divided into the following 3 groups based on body weight (8-10 per group). […]
At day 42 after the initiation of treatment, blood was taken from carotid artery and the mice were exsanguinated to death under ether anesthesia. The anti-bovine type II collagen antibody titer in blood was determined by the ELISA method according to the method of Stuart et al. (Stuart, J. M. et al.: Nature and specificity of the immune response to collagen in type II collagen-induced arthritis in mice, J. Clin. Invest., 69:673-683, 1982).

[4] = Acute Toxicity Test; conditions: mouse, in vivo; oral, suspension, male ICR mice
Text: The cromoglycic acid compound prepared in the above Example 1 was orally administered to male ICR mice (3 per group) in the form of a suspension.

[5] = tested on: bone of feet and digits of the four limbs; test: X-ray score of bone destruction in collagen-induced arthritis mice; format: in vivo, male DBA/1J mice; conditions: 100 mg/kg/day orally
Text: as §1, §2
In addition, the whole body w as X-ray photographed and destruction state of the bone of feet and digits of the four limbs was scored (X-ray score) by a blind test according to the criteria of Gliman et al. (Gliman S. C. et al.: Immunological abnormalities in rats with adjuvant-induced ar thritis, II. Effect of antiarthritic therapy on immune function in relation to disease development, Int. J. Immunopharmacol. , 9:9-16, 1987), wherein normal was rated 0 point, destruction in one joint was 1 point, destruction in two or more joints, though not all joints, was 2 points, and destruction in all joints was 3 points, each mouse scoring 0 to 12 points in total.

CCOC(=O)c1cc(=O)c2c(OCC(COc3cccc4oc(C(=O)OCC)cc(=O)c34)OC(=O)CC(C)=O)cccc2o1 [Example 1, Diethyl Acetoacetylcromoglycate]
Increase in thickness of auricle after application of antigen ([1]; 100 mg/kg orally twice a day for 14 days, 48 hr after applying 0.5% picryl chloride solution, mean ± standard error (n = 8-9), control 0.045 ± 0.003, p < 0.01): 0.031 ± 0.003 mm
effect on swelling of the auricle (in words) ([1]; 100 mg/kg orally twice a day, 48 hours after picryl chloride challenge, t-test with control group): significant inhibitory action on the swelling of the auricle
effect on arthritis score (in words) ([2]; 100 mg/kg/day orally, day 38 after start of treatment, U-test with control group): inhibition of the symptoms of collagen-induced arthritis (rheumatoid arthritis); also recorded: significant improvement in the arthritis scores
Arthritis score ([2]; 100 mg/kg/day orally, day 79 after initial injection of collagen (day 38 after starting treatment), control 10.70 ± 0.49, p < 0.01): 6.36 ± 1.30
Arthritis score ([2]; day 38 after initial injection of collagen (3 days before treatment)): 1.80 ± 0.61
effect on anti-bovine type II collagen antibody titer in blood (in words) ([3]; day 42 after initiation of treatment, ANOVA with control group): significant decrease in anti-bovine type II collagen antibody titer in blood; also recorded: inhibition of an increase in the anti-bovine collagen antibody titer in blood
Anti-bovine type II collagen antibody titer in blood ([3]; day 83 after initial injection of collagen (day 42 after starting treatment), mean ± standard error (n = 8-10), control 0.301 ± 0.005, p < 0.01): 0.203 ± 0.010
LD50 [4]: > 1000 mg/kg
effect on X-ray score / bone destruction (in words) ([5]; day 42 after starting treatment, U-test with control group): signifiicant improvement in X-ray so re; also recorded: inhibition of bone destruction of feet and digits of the four limbs
X-ray score ([5]; day 83 after initial injection of collagen (day 42 after starting treatment), mean ± standard error (n = 8-10), control 10.20 ± 0.40, p < 0.01): 5.80 ± 1.10

From patent publication US6262108A, “Medicinal use of cromoglycic acid compounds” (Kyoto Pharmaceutical Industries, Ltd., priority 1997, dated 2001)
